{
  "source": "patent US8377989B2",
  "about": "“Room temperature stable non-crystalline aspirin and method for the preparation thereof” (priority 2007, dated 2013)",
  "key": {"[1]": {"settings": "100 K (−173° C.) versus ambient conditions; cited from earlier work"}, "[2]": {"assay": "Flow test: Petri dish with sample placed on edge", "assay_type": "physicochemical", "settings": "Example 3; Petri dish on edge for about six weeks", "text": "(§1) Subsequent tests with the protocol of Example 2 were repeated with the order of long and short wavelengths reversed, i.e., short wavelength followed by long wavelength cycled sequenced laser treatment. This protocol also produced up to 90 percent yields of room temperature stable non-crystalline glass aspirin, which remained stable at room temperature for over 23 months. The Petri dish containing such a sample of non-crystalline aspirin was placed on edge for a period of about six weeks."}, "[3]": {"assay": "Storage stability of the non-crystalline form at room temperature (appearance, PXRD)", "assay_type": "physicochemical", "settings": "for time the non-crystalline glass form remained stable: room temperature", "text": "Within an hour of the evaporative desolvation process following the laser treatment, the system stabilized with 80 percent or more of the mass of the sample cured to a clear non-crystalline glass rather than a crystalline form.\nAfter the 6 months of storage, the laser treated aspirin was studied by PXRD.\nas §1"}, "[4]": {"settings": "298K; vitrified by melting and cooling or ball-milling; cited from earlier work"}},
  "data": [
    {"smiles": "CC(=O)Oc1ccccc1C(=O)O", "note": "[Aspirin Form II]", "values": [
      {"measurement": "stability of the polymorphic form", "setting": "[1]", "value": "kinetically stable at 100 K (−173° C.), but converts back to Form I at ambient conditions"}
    ]},
    {"smiles": "CC(=O)Oc1ccccc1C(=O)O", "note": "[non-crystalline aspirin, acetylsalicylic acid]", "values": [
      {"measurement": "flowing of the sample", "setting": "[2]", "value": "No flowing of the sample was observed"},
      {"measurement": "crystallization on further storage", "setting": "[3]; Example 2, additional six months of storage after the first 6 months", "value": "No crystallization has been observed"},
      {"measurement": "storage period with no change in appearance of the sample", "setting": "[3]; Example 2, room temperature of about 18° to 22° C., about 30 to 40 percent humidity", "value": "over 6 months"},
      {"measurement": "time remained stable at room temperature", "setting": "[3]; Example 3, short wavelength followed by long wavelength laser treatment", "value": "over 23 months"},
      {"measurement": "time the non-crystalline glass form remained stable", "setting": "[3]", "value": "stable at room temperature once the solvent had evaporated"},
      {"measurement": "time the non-crystalline glass form remained stable", "setting": "[3]; listed as glass aspirin", "value": "stable for up to about a year at room temperature"},
      {"measurement": "time the non-crystalline glass form remained stable", "setting": "[3]; listed as non-crystalline glass form", "value": "stable at room temperature for at least up to about a year"},
      {"measurement": "time the non-crystalline form remained stable", "setting": "[3]; temperature of about 20° to 30° C.", "value": "stable at a temperature of about 20° to 30 °C for at least about a year"}
    ]},
    {"smiles": "CC(=O)Oc1ccccc1C(=O)O", "note": "[vitreous aspirin]", "values": [
      {"measurement": "stability against crystallization", "setting": "[4]", "value": "did not crystallize for four to five days"}
    ]}
  ]
}
